Patent US20240050428A1 (Cullgen (Shanghai), Inc., priority 2020, published 2024)
Like-named read-outs stand apart in the source and are kept apart here.

Legend:
MOLM-13 cells = test: Cell viability assay (CellTiter-Glo) in MOLM-13 cells, alone or with gilteritinib; assay type: cell-based; details: Homo sapiens, MOLM-13 cells, three days, CellTiter-Glo
MV4;11 cells = test: Cell viability assay (CellTiter-Glo) in MV4;11 cells, alone or with gilteritinib; assay type: cell-based; details: Homo sapiens, MV4;11 cells, three days, CellTiter-Glo, read-out: MV4
[1] = MOLM-13, 72 h, compound alone (without gilteritinib), read-out: MOLM-13 IC50
[2] = MOLM-13, 72 h, compound with gilteritinib 20 nM, read-out: MOLM-13 IC50 gilteritinib
[3] = MV4-11, 72 h, compound alone (without gilteritinib), 11 IC50
[4] = MV4-11, 72 h, compound with gilteritinib 10 nM, 11 IC50 gilteritinib

| SMILES | IC50 (MOLM-13 cells; [1]) | IC50 (MOLM-13 cells; [2]) | IC50 (MV4;11 cells; [3]) | IC50 (MV4;11 cells; [4]) | IC50 (MOLM-13 cells; 72 h, compound alone (without gilteritinib), read-out: MOLM-13 IC50) | IC50 (MOLM-13 cells; 72 h, compound with gilteritinib 20 nM, read-out: MOLM-13 IC50 gilteritinib) | IC50 (MV4;11 cells; 72 h, compound alone (without gilteritinib), 11 IC50) | IC50 (MV4;11 cells; 72 h, compound with gilteritinib 10 nM, 11 IC50 gilteritinib) |
| --- | --- | --- | --- | --- | --- | --- | --- | --- |
| O=C1CCC(N2C(=O)c3ccc(NCCCCCCn4ncc(-c5cnc6ccccc6n5)c4C4CC4)cc3C2=O)C(=O)N1 (stereo not shown) [GS-553, 5-((6-(5-cyclopropyl-4-(quinoxalin-2-yl)-1H-pyrazol-1-yl)hexyl)amino)-2-(2,6-dioxopiperidin-3-yl)isoindoline-1,3-dione] | > 1000 nM | 10 to 100 nM | > 1000 nM | 10 to 100 nM | – | – | – | – |
| O=C1CCC(N2C(=O)c3ccc(NCCCCCCn4nc(C(F)(F)F)c(-c5cnc6ccccc6n5)c4C(F)(F)F)cc3C2=O)C(=O)N1 (stereo not shown) [GS-554, 2-(2,6-Dioxopiperidin-3-yl)-5-((6-(4-(quinoxalin-2-yl)-3,5-bis(trifluoromethyl)-1H-pyrazol-1-yl)hexyl)amino)isoindoline-1,3-dione] | > 1000 nM | 10 to 100 nM | 100 to 1000 nM | 10 to 100 nM | – | – | – | – |
| O=C1CCC(N2C(=O)c3ccc(NCCCCCCn4cc(-c5cnc6cccc(C(F)(F)F)c6n5)cn4)cc3C2=O)C(=O)N1 (stereo not shown) [GS-555, 2-(2,6-Dioxopiperidin-3-yl)-5-((6-(4-(8-(trifluoromethyl)quinoxalin-2-yl)-1H-pyrazol-1-yl)hexyl)amino)isoindoline-1,3-dione] | 100 to 1000 nM | < 10 nM | 100 to 1000 nM | 10 to 100 nM | – | – | – | – |
| O=C1CCC(N2C(=O)c3ccc(NC4CC(CCCn5cc(-c6cnc7ccccc7n6)cn5)C4)cc3C2=O)C(=O)N1 (stereo not shown) [GS-556] | > 1000 nM | > 1000 nM | > 1000 nM | > 1000 nM | – | – | – | – |
| O=C1CCC(N2C(=O)c3ccc(NCCCCCCn4ncc(-c5cnc6ccccc6n5)c4C(F)F)cc3C2=O)C(=O)N1 (stereo not shown) [GS-557, 5-((6-(5-(Difluoromethyl)-4-(quinoxalin-2-yl)-1H-pyrazol-1-yl)hexyl)amino)-2-(2,6-dioxopiperidin-3-yl)isoindoline-1,3-dione] | 10 to 100 nM | < 10 nM | 10 to 100 nM | < 10 nM | – | – | – | – |
| O=C1CCC(N2C(=O)c3ccc(NCCC4CC(Cn5cc(-c6cnc7ccccc7n6)cn5)C4)cc3C2=O)C(=O)N1 (stereo not shown) [GS-558, 2-(2,6-Dioxopiperidin-3-yl)-5-((2-(3-((4-(quinoxalin-2-yl)-1H-pyrazol-1-yl)methyl)cyclobutyl)ethyl)amino)isoindoline-1,3-dione] | – | – | – | – | > 1000 nM | 10 to 100 nM | 100 to 1000 nM | 100 to 1000 nM |
| O=C1CCC(N2C(=O)c3ccc(NCCCCCCn4cc(-c5cnc6ccc(C(F)(F)F)cc6n5)cn4)cc3C2=O)C(=O)N1 (stereo not shown) [GS-559] | 10 to 100 nM | < 10 nM | 10 to 100 nM | 10 to 100 nM | – | – | – | – |
| O=C1CCC(N2C(=O)c3ccc(NCCC4CC(n5cc(-c6cnc7ccccc7n6)cn5)C4)cc3C2=O)C(=O)N1 (stereo not shown) [GS-561, 2-(2,6-Dioxopiperidin-3-yl)-5-((2-(3-(4-(quinoxalin-2-yl)-1H-pyrazol-1-yl)cyclobutyl)ethyl)amino)isoindoline-1,3-dione] | > 1000 nM | 10 to 100 nM | > 1000 nM | 100 to 1000 nM | – | – | – | – |
| O=C1CCC(N2C(=O)c3ccc(NCCCCCCn4cc(-c5cnc6ccc(C7CC7)cc6n5)cn4)cc3C2=O)C(=O)N1 (stereo not shown) [GS-562, 5-((6-(4-(7-Cyclopropylquinoxalin-2-yl)-1H-pyrazol-1-yl)hexyl)amino)-2-(2,6-dioxopiperidin-3-yl)isoindoline-1,3-dione] | 10 to 100 nM | < 10 nM | 10 to 100 nM | 10 to 100 nM | – | – | – | – |
| O=C1CCC(N2C(=O)c3ccc(NCCC4CC5(C4)CC(n4cc(-c6cnc7ccccc7n6)cn4)C5)cc3C2=O)C(=O)N1 (stereo not shown) [GS-564, 2-(2,6-Dioxopiperidin-3-yl)-5-((2-(6-(4-(quinoxalin-2-yl)-1H-pyrazol-1-yl)spiro[3.3]heptan-2-yl)ethyl)amino)isoindoline-1,3-dione] | 10 to 100 nM | < 10 nM | 10 to 100 nM | < 10 nM | – | – | – | – |
| O=C1CCC(N2C(=O)c3cccc(NCCCC4CC(n5cc(-c6cnc7ccccc7n6)cn5)C4)c3C2=O)C(=O)N1 (stereo not shown) [GS-565, 2-(2,6-Dioxopiperidin-3-yl)-4-((3-(3-(4-(quinoxalin-2-yl)-1-pyrazol-1-yl)cyclobutyl)propyl)amino)isoindoline-1,3-dione] | > 1000 nM | 10 to 100 nM | > 1000 nM | 100 to 1000 nM | – | – | – | – |
| O=C1CCC(N2C(=O)c3ccc(NCCCC4CC(n5cc(-c6cnc7ccc(CC8CNC8)cc7n6)cn5)C4)cc3C2=O)C(=O)N1 (stereo not shown) [GS-566, 5-((3-(3-(4-(7-(Azetidin-3-ylmethyl)quinoxalin-2-yl)-1H-pyrazol-1-yl)cyclobutyl)propyl)amino)-2-(2,6-dioxopiperidin-3-yl)isoindoline-1,3-dione] | > 1000 nM | 100 to 1000 nM | > 1000 nM | 100 to 1000 nM | – | – | – | – |
| O=C1CCC(N2C(=O)c3ccc(NCCCC4CC(n5cc(-c6cnc7ccc(NC8COC8)cc7n6)cn5)C4)cc3C2=O)C(=O)N1 (stereo not shown) [GS-567, 2-(2,6-Dioxopiperidin-3-yl)-5-((3-(3-(4-(7-(oxetan-3-ylamino)quinoxalin-2-yl)-1H-pyrazol-1-yl)cyclobutyl)propyl)amino)isoindoline-1,3-dione] | 100 to 1000 nM | < 10 nM | 100 to 1000 nM | 10 to 100 nM | – | – | – | – |
| O=C1CCC(N2C(=O)c3ccc(NCCC[C@H]4C[C@H](n5cc(-c6cnc7ccccc7n6)c(C6CC6)n5)C4)cc3C2=O)C(=O)N1 (stereo partly drawn) [GS-568, 5-((3-((trans)-3-(3-Cyclopropyl-4-(quinoxalin-2-yl)-1H-pyrazol-1-yl)cyclobutyl)propyl)amino)-2-(2,6-dioxopiperidin-3-yl)isoindoline-1,3-dione] | 10 to 100 nM | < 10 nM | 10 to 100 nM | < 10 nM | – | – | – | – |
| O=C1CCC(N2C(=O)c3ccc(NCCCCCCn4cc(-c5cnc6ccc(N7CCOCC7)cc6n5)c(C5CC5)n4)cc3C2=O)C(=O)N1 (stereo not shown) [GS-569, 5-((6-(3-Cyclopropyl-4-(7-morpholinoquinoxalin-2-yl)-1H-pyrazol-1-yl)hexyl)amino)-2-(2,6-dioxopiperidin-3-yl)isoindoline-1,3-dione] | < 10 nM | < 10 nM | < 10 nM | < 10 nM | – | – | – | – |
| CN1CCN(c2ccc3ncc(-c4cn(CCCCCCNc5ccc6c(c5)C(=O)N(C5CCC(=O)NC5=O)C6=O)nc4C4CC4)nc3c2)CC1 (stereo not shown) [GS-570, 5-((6-(3-Cyclopropyl-4-(7-(4-methylpiperazin-1-yl)quinoxalin-2-yl)-1H-pyrazol-1-yl)hexyl)amino)-2-(2,6-dioxopiperidin-3-yl)isoindoline-1,3-dione] | 100 to 1000 nM | < 10 nM | 10 to 100 nM | < 10 nM | – | – | – | – |
| O=C1CCC(N2C(=O)c3ccc(NCCCCCCn4cc(-c5cnc6ccc(C7CCOCC7)cc6n5)c(C5CC5)n4)cc3C2=O)C(=O)N1 (stereo not shown) [GS-571, 5-((6-(3-Cyclopropyl-4-(7-(tetrahydro-2H-pyran-4-yl)quinoxalin-2-yl)-1H-pyrazol-1-yl)hexyl)amino)-2-(2,6-dioxopiperidin-3-yl)isoindoline-1,3-dione] | 10 to 100 nM | < 10 nM | < 10 nM | < 10 nM | – | – | – | – |
| CN1CCC(c2ccc3ncc(-c4cn(CCCCCCNc5ccc6c(c5)C(=O)N(C5CCC(=O)NC5=O)C6=O)nc4C4CC4)nc3c2)CC1 (stereo not shown) [GS-572, 5-((6-(3-Cyclopropyl-4-(7-(1-methylpiperidin-4-yl)quinoxalin-2-yl)-1H-pyrazol-1-yl)hexyl)amino)-2-(2,6-dioxopiperidin-3-yl)isoindoline-1,3-dione] | 100 to 1000 nM | < 10 nM | 10 to 100 nM | < 10 nM | – | – | – | – |
| C[C@H]1CN(c2ccc3ncc(-c4cnn([C@H]5C[C@H](CCCNc6ccc7c(c6)C(=O)N(C6CCC(=O)NC6=O)C7=O)C5)c4)nc3c2)CCN1C (stereo partly drawn) [GS-575, 5-((3-(trans-3-(4-(7-((S)-3,4-Dimethylpiperazin-1-yl)quinoxalin-2-yl)-1H-pyrazol-1-yl)cyclobutyl)propyl)amino)-2-(2,6-dioxopiperidin-3-yl)isoindoline-1,3-dione] | 10 to 100 nM | < 10 nM | 10 to 100 nM | < 10 nM | – | – | – | – |
| C[C@H]1CN(c2ccc3ncc(-c4cnn([C@H]5C[C@H](CCCNc6ccc7c(c6)C(=O)N(C6CCC(=O)NC6=O)C7=O)C5)c4)nc3c2)CCN1 (stereo partly drawn) [GS-576, 2-(2,6-Dioxopiperidin-3-yl)-5-((3-(trans-3-(4-(7-((S)-3-methylpiperazin-1-yl)quinoxalin-2-yl)-1H-pyrazol-1-yl)cyclobutyl)propyl)amino)isoindoline-1,3-dione] | 10 to 100 nM | < 10 nM | 10 to 100 nM | < 10 nM | – | – | – | – |
| O=C1CCC(N2C(=O)c3ccc(NC[C@H]4C[C@H](n5cc(-c6ccccn6)cn5)C4)cc3C2=O)C(=O)N1 (stereo partly drawn) [GS-577, 2-(2,6-Dioxopiperidin-3-yl)-5-(((trans-3-(4-(pyridin-2-yl)-1H-pyrazol-1-yl)cyclobutyl)methyl)amino)isoindoline-1,3-dione] | 100 to 1000 nM | 100 to 1000 nM | > 1000 nM | > 1000 nM | – | – | – | – |
| Cc1cccc(-c2cnn([C@H]3C[C@H](CNc4ccc5c(c4)C(=O)N(C4CCC(=O)NC4=O)C5=O)C3)c2)n1 (stereo partly drawn) [GS-578, 2-(2,6-Dioxopiperidin-3-yl)-5-(((trans-3-(4-(6-methylpyridin-2-yl)-1H-pyrazol-1-yl)cyclobutyl)methyl)amino)isoindoline-1,3-dione] | > 1000 nM | 100 to 1000 nM | > 1000 nM | 100 to 1000 nM | – | – | – | – |
